In ChEMBL document CHEMBL4422644, “Synthesis and evaluation of α-aminoacyl amides as antitubercular agents effective on drug resistant tuberculosis” (Eur J Med Chem, 2019):
Converted amounts (≈) assume the structure as drawn.

Key:
[1] = test system: Mycobacterium tuberculosis; assay: Antitubercular activity against Mycobacterium tuberculosis H37Rv after 6 days by alamar blue assay; assay type: functional; settings: 144 h
[2] = test system: Mycobacterium tuberculosis; assay: Antitubercular activity against Mycobacterium tuberculosis H37Rv after 7 days by alamar blue assay; assay type: functional; settings: 168 h
CHO-K1 = assay: Cytotoxicity against CHOK1 cells after 24 hrs by MTT assay; assay type: cell-based; settings: Cricetulus griseus, CHO-K1, 24 h
[3] = Selectivity index, ratio of IC50 for CHOK1 cells to MIC for Mycobacterium tuberculosis H37Rv; assay type: toxicity; settings: hamster, read-out: Selectivity Index
A549 = assay: Cytotoxicity against human A549 cells after 24 hrs by MTT assay; assay type: functional, cell-based; settings: A549, 24 h
DU-145 = assay: Cytotoxicity against human DU145 cells after 24 hrs by MTT assay; assay type: functional, cell-based; settings: DU-145, 24 h
HeLa = assay: Cytotoxicity against human HeLa cells after 24 hrs by MTT assay; assay type: functional, cell-based
HepG2 = assay: Cytotoxicity against human HepG2 cells after 24 hrs by MTT assay; assay type: functional, cell-based; settings: HepG2, 24 h
MCF7 = assay: Cytotoxicity against human MCF7 cells after 24 hrs by MTT assay; assay type: functional, cell-based; settings: MCF7, 24 h
[4] = Cytotoxicity against […] B16 cells after 24 hrs by MTT assay; assay type: functional, cell-based; settings: B16, 24 h
[5] = Cytotoxicity against HEK cells after 24 hrs by MTT assay; assay type: cell-based; settings: Homo sapiens, HEK293, 24 h
Escherichia coli = assay: Antibacterial activity against Escherichia coli ATCC 25922 after 24 hrs; assay type: functional; settings: ATCC 25922, 24 h
Staphylococcus aureus = assay: Antibacterial activity against Staphylococcus aureus ATCC 29213 after 24 hrs; assay type: functional; settings: ATCC 29213, 24 h
Pseudomonas aeruginosa = assay: Antibacterial activity against Pseudomonas aeruginosa ATCC 27853 after 24 hrs; assay type: functional; settings: ATCC 27853, 24 h
Klebsiella pneumoniae = assay: Antibacterial activity against Klebsiella pneumoniae ATCC BAA-1705 after 24 hrs; assay type: functional; settings: ATCC BAA-1705, 24 h
Acinetobacter baumannii = assay: Antibacterial activity against Acinetobacter baumannii ATCC BAA-1605 after 24 hrs; assay type: functional; settings: ATCC BAA-1605, 24 h
[6] = test system: Mycolicibacterium fortuitum; assay: Antibacterial activity against Mycobacterium fortuitum after 7 days by alamar blue assay; assay type: functional; settings: 168 h
Mycobacteroides chelonae = assay: Antibacterial activity against Mycobacterium chelonae after 7 days by alamar blue assay; assay type: functional; settings: 168 h
[7] = test system: Mycobacteroides abscessus; assay: Antibacterial activity against Mycobacterium abscessus after 7 days by alamar blue assay; assay type: functional; settings: 168 h
[8] = Selectivity index, ratio of IC50 for HEK cells to MIC for Mycobacterium tuberculosis H37Rv; assay type: toxicity; settings: human, read-out: Selectivity Index
[9] = test system: Mycobacterium tuberculosis; assay: Antitubercular activity against Mycobacterium tuberculosis H37Rv assessed as microbial killing at 4 fold MIC incubated for 6 days by MPN assay; assay type: functional, organism-based

Row | Structure (SMILES) | MIC [2] [µM] | IC50 (CHO-K1) [µM] | selectivity ratio [3] | IC50 (A549) [µM] | IC50 (DU-145) [µM] | IC50 (HeLa) [µM] | IC50 (HepG2) [µM] | IC50 (MCF7) [µM] | IC50 [4] [µM] | IC50 [5] [µM] | MIC (Escherichia coli) [µM] | MIC (Staphylococcus aureus) [µM] | MIC (Pseudomonas aeruginosa) [µM] | MIC (Klebsiella pneumoniae) [µM] | MIC (Acinetobacter baumannii) [µM] | MIC [6] [µM] | MIC (Mycobacteroides chelonae) [µM] | MIC [7] [µM] | selectivity ratio [8] | also measured
1 | Cc1nc(C)c(C(=O)N(c2cccc(C)c2C)C(C(=O)NC2CCCCC2)c2ccccc2)s1 (stereo unspecified) | 12.5 (≈ 5.95 µg/mL) | 27.9 | 2.1 | 12.5 | 12.6 | 8.29 | 9.34 | 11 | 15.5 | 34.4 | > 50 | > 50 | > 50 | > 50 | > 50 | > 50 | > 50 | > 50 |  | MIC [1]: 12.5 µM (≈ 5.95 µg/mL)
2 | Cc1nc(C)c(C(=O)N(c2cccc(C)c2C)C(C(=O)NC2CCCCC2)c2ccncc2)s1 (stereo unspecified) | 1.56 (≈ 0.744 µg/mL) | 71.8 | 45.5 | 6.6 | 10.9 | 10.5 | 14.5 | 4.49 | 11.6 | 48.9 | > 50 | > 50 | > 50 | > 50 | > 50 | > 50 | > 50 | > 50 | 31.4 | 
3 | Cc1cccc(N(C(=O)c2c(C)noc2C)C(C(=O)NC2CCCCC2)c2ccccc2)c1C (stereo unspecified) | 3.12 (≈ 1.43 µg/mL) | 47.5 | 15.1 | 8.49 | 9.95 | 8.67 | 10.4 | 3.05 | 27.7 | 97.6 | > 50 | > 50 | > 50 | > 50 | > 50 | > 50 | > 50 | > 50 | 31.3 | 
4 | Cc1cccc(N(C(=O)C2CCCCN2)C(C(=O)NC2CCCCC2)c2ccccc2)c1C (stereo unspecified) | 3.12 (≈ 1.4 µg/mL) | 54.4 | 4.3 | 9.74 | 8.82 | 10.3 | 10.6 | 3.31 | 16.4 | 174 | > 50 | > 50 | > 50 | > 50 | > 50 | > 50 | > 50 | > 50 | 55.7 | 
5 | Cc1cccc(N(C(=O)c2ccncc2)C(C(=O)NC2CCCCC2)c2ccccc2)c1C (stereo unspecified) | 6.25 (≈ 2.76 µg/mL) | 81.4 | 13 | 12.9 | 11.3 | 13.8 | 6.99 | 6.41 | 12.2 | 38 | > 50 | > 50 | > 50 | > 50 | > 50 | > 50 | > 50 | > 50 |  | 
6 | Cc1ccc(N(C(=O)c2sc(C)nc2C)C(C(=O)NC2CCCCC2)c2ccncc2)cc1 (stereo unspecified) | 12.5 (≈ 5.78 µg/mL) | 141 | 11.3 | 11.6 | 14.5 | 11 | 12 | 10.3 | 23.9 | 81.1 | > 50 | > 50 | > 50 | > 50 | > 50 | > 50 | > 50 | > 50 |  | 
7 | Cc1nc(C)c(C(=O)N(c2cccc(C)c2C)C(C(=O)NC2CCCCC2)c2cccnc2)s1 (stereo unspecified) | 0.78 (≈ 0.372 µg/mL) | 107 | 136 | 8.62 | 10 | 9.58 | 14 | 6.39 | 13.4 | 81.1 | > 50 | > 50 | > 50 | > 50 | > 50 | > 50 | > 50 | > 50 | 104 | Activity [9]: Dose-dependent effect
8 | Cc1ccc(N(C(=O)c2c(C)noc2C)C(C(=O)NC2CCCCC2)c2ccncc2)cc1 (stereo unspecified) | 6.12 (≈ 2.73 µg/mL) | 166 | 26.6 | 11 | 9.53 | 15.8 | 8.48 | 4.24 | 28.6 | 71.3 | > 50 | > 50 | > 50 | > 50 | > 50 | > 50 | > 50 | > 50 |  | 
9 | Cc1ccc(N(C(=O)c2sc(C)nc2C)C(C(=O)NC2CCCCC2)c2cccnc2)cc1 (stereo unspecified) | 3.12 (≈ 1.44 µg/mL) | 161 | 51.6 | 11.7 | 16.6 | 9.11 | 6.75 | 5.99 | 17.7 | 59.1 | > 50 | > 50 | > 50 | > 50 | > 50 | > 50 | > 50 | > 50 | 18.9 | 
10 | Cc1ccc(N(C(=O)c2c(C)noc2C)C(C(=O)NC2CCCCC2)c2cccnc2)cc1 (stereo unspecified) | 6.12 (≈ 2.73 µg/mL) | 112 | 17.9 | 12.9 | 11 | 18.2 | 10.3 | 5.39 | 40 | 82 | > 50 | > 50 | > 50 | > 50 | > 50 | > 50 | > 50 | > 50 |  | 
11 | Cc1nc(C)c(C(=O)N(c2cccc(C)c2C)C(C(=O)NCc2ccccc2)c2ccccc2)s1 (stereo unspecified) | 6.12 (≈ 2.96 µg/mL) | 30.2 | 4.9 | 12.7 | 12.6 | 11.7 | 8.13 | 5.62 | 12.4 | 31.2 | > 50 | > 50 | > 50 | > 50 | > 50 | > 50 | > 50 | > 50 |  | 
12 | Cc1cccc(N(C(=O)c2ccc[nH]2)C(C(=O)NC2CCCCC2)c2cccnc2)c1C (stereo unspecified) | 12.5 (≈ 5.38 µg/mL) | 267 | 21.4 | 17.5 | 12.6 | 10 | 9.58 | 5.51 | 13.7 | 54.3 | > 50 | > 50 | > 50 | > 50 | > 50 | > 50 | > 50 | > 50 |  | 
13 | Cc1cccc(N(C(=O)c2ccncc2)C(C(=O)NC2CCCCC2)c2cccnc2)c1C (stereo unspecified) | 3.12 (≈ 1.38 µg/mL) | 171 | 11.3 | 11.8 | 20.2 | 11.2 | 12.7 | 6.14 | 19.8 | 86.1 | > 50 | > 50 | > 50 | > 50 | > 50 | > 50 | > 50 | > 50 |  | 
